The source of these data is PMC7746380, “In vitro and in vivo efficacy of the novel oral proteasome inhibitor NNU546 in multiple myeloma” (Aging (Albany NY), 2020).

Usually CLint scaled stands for the capacity of the preparation to metabolise the compound, expressed as a volume cleared per time. A high value points to faster metabolism. As a reminder, the half-life is how long it takes for the measured level to halve. The low end stands for rapid decline, the high end for slow decline. The term IC50 denotes the concentration that inhibits the measured activity by half.

Data set [1] can be described thus: Microsomal stability, human liver microsomes. The data set is classed as in vitro ADME. The settings on record: pooled human liver microsomes, 1 μM compound, 37 °C. The procedure: (§1) Microsomal stabilities were determined by incubating 1 μM of the test compounds with rat, mouse, dog, monkey or human liver microsomes (Xenotech, USA) for different durations at 37 °C. Clearance and T1/2 were calculated by measuring the remaining percentage of test compounds at different time-points. Liquid chromatography/mass spectrometry (Xevo Quadrupole Time-of-Flight Mass Spectrometer; Waters) and an ACQUITY High-Performance Liquid Chromatography (HPLC) system ([…]) were used to determine the relative peak area for the parent compounds.
(§2) Antipyrine and testosterone (5 μM each)
(§3) were used as positive and negative controls, respectively. Abbreviations: t = time; CLint, intrinsic clearance. […]
On the technique in general: Liver microsomes are vesicles of endoplasmic reticulum, rich in cytochrome P450 enzymes.

Data set [2] is described as follows: Microsomal stability, rat liver microsomes. As to conditions: pooled rat liver microsomes, 1 μM compound, 37 °C. The data set is classed as in vitro ADME. On the procedure:
as §1, §2, §3

Data set [3] can be described thus: Microsomal stability, mouse liver microsomes. The data set is classed as in vitro ADME. As to conditions: pooled mouse liver microsomes, 1 μM compound, 37 °C. The procedure: as §1, §2, §3
Data set [4] deals with NF-κB/luciferase 293T cells. Description: NF-κB inhibition assay (luciferase reporter, TNF-α stimulated). The data set is classed as cell-based. As to conditions: Homo sapiens, HEK-293T; 6 h pre-treatment, then 10 ng/ml TNF-α for 18 h; read from Figure 3K. The procedure:
To determine the inhibition of NF-κB signaling, the transfected NF-κB/luciferase 293T cells were pre-treated with various concentrations of NNU219 or bortezomib for 6 h and then stimulated with 10 ng/ml of tumor necrosis factor-α (TNF-α) for 18 h, followed by measurement of luciferase activity by using the Dual-Luciferase® Reporter Assay System (Promega Corp., Madison, WI, USA) as previously described.
(In a reporter assay the amount or activity of a reporter protein is the signal.)

A further data set has as its system ARH77 xenograft. Briefly: ARH77 MM xenograft model. The data set is classed as in vivo, mice. As to conditions: BIW, 3 weeks. On the procedure:
For the ARH77 xenograft model, female BNX mice (n=5; 5-7 weeks old; Shanghai Sippr-BK laboratory Animal Co. Ltd.) were implanted with 5×10^6 of ARH77 cells in Matrigel (1:1) and randomized into treatment and vehicle groups when the mean tumor volume (MTV) reached 100-150 mm^3. For the intravenous treatment groups, mice were treated with bortezomib (1 mg/kg, BIW) or NNU219 (0.4 mg/kg, BIW), respectively. For i.g. administration, mice were treated with ixazomib (5 mg/kg, BIW) and NNU546 (1 mg/kg, QD) or NNU546 (2 mg/kg, QOD). Tumors were measured twice a week and the tumor volume was calculated using the following formula: 0.5 × (length × width^2).

Data set [5] deals with 20S proteasome (CT-L, C-L, T-L activities) in whole blood. Description: In vivo proteasome activity in whole blood. On the set-up: species or system mice. As to conditions: 48 h after dose. The procedure:
For the cellular proteasome activity assays, cells were treated with concentrations of compounds (0-10 μM) for 1 h at 37 °C and the CT-L, C-L and T-L activities of proteasome were evaluated by using the Proteasome-Glo assay reagents (Promega Corp. Madison, WI, USA) according to the manufacturer's protocol. For determination of recovery of cellular proteasome activity, cells were treated with the compounds for 1 h and then washed thrice in PBS to remove the compounds. Cells were incubated in fresh medium for an additional 4, 24 or 72 h at 37 °C. […] Blood samples were collected after 1 h, and whole blood cells were then analyzed for proteasome activity as previously described.
For the pharmacodynamic study, female BNX mice (n=6; 5-7 weeks old; Shanghai Sippr-BK laboratory Animal Co. Ltd.) were given one single dose of NNU219 (0.4 mg/kg) and bortezomib (1 mg/kg) by i.v. administrations or NNU546 (2-15 mg/kg) by oral gavage. […] Tissue homogenates and cell lysates were removed by centrifugation and supernatants were collected for protein quantitation and proteasome activity determination using the Proteasome-Glo assay reagents as described above.

In data set [6] the test system is patient-derived primary human MM xenografts. Briefly: Patient-derived MM xenograft (PDX) model in NCG mice. The data set is classed as in vivo. As to conditions: 5 mg/kg i.g., BIW, 3 weeks. An excerpt: The PDX model was generated from biopsies of patients with MM brain manifestation at the Department of Hematology, the 1st Affiliated Hospital of Nanjing Medical University. Freshly excised tumor tissue specimens were washed and cut into 2.5×2.5×2.5 mm^3 pieces in antibiotic-containing L-15 medium. Under anesthesia with pentobarbital, 4-6 weeks-old male NCG mice (n=6; Model Animal Research Center of Nanjing University) were subcutaneously transplanted with the tumor pieces. Tumors were harvested when their size reached 500 mm^3 (Px1 xenografts). Tumor tissue from Px1 xenograft mice was divided into small pieces and then implanted again subcutaneously as described above to obtain Px2 xenografts. This process was once more and the experiments were performed on Px3 xenograft mice, which were randomized into treatment groups when tumor volume reached 100-150 mm^3. Mice were orally administered with ixazomib (5 mg/kg, i.g., BIW) or NNU546 (1 mg/kg, QD). Tumors were measured twice a week.
Background: In xenograft studies the graft and the host belong to different species.

For `CC(C)C[C@H](NC(=O)[C@H](Cc1ccccc1)NC(=O)c1cnccn1)B(O)O` [bortezomib], the results for the intrinsic clearance (CLint scaled) at 1 μM in data set [1], in data set [2] and in data set [3] were 58.3 mL/min/kg, 200 mL/min/kg and 509 mL/min/kg, respectively. Moreover, the half-life at 1 μM in data set [1] turned out to be 21.4 min; in data set [2], 12.4 min; in data set [3], 10.7 min. Besides, the half-inhibitory concentration (IC50) in data set [4] was determined as 18.8 nM. Also, the “reduction of tumor volume” value in the data set on ARH77 xenograft (1 mg/kg i.v.) was found to be 24.9%. Moreover, the “proteasome inhibition in whole blood at 48 h” value in data set [5] was “only minimal or no inhibition”.

With `CC(C)C[C@H](NC(=O)CNC(=O)c1cc(Cl)ccc1Cl)B(O)O` [ixazomib], the “reduction of tumor progression” value in the data set with ARH77 xenograft (5 mg/kg i.g.) is 36.3%. Further, in data set [6], the “reduction of tumor volume” value amounted to 30.5%.
